Values joined by “and” are separate entries in the source; they are usually repeats but may differ in a detail not shown here. Equal values may be shown once.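 Assay format: 96-well plates, 48-hour exposure. The concentration for 50% growth inhibition is given as GI50. TGI: total growth inhibition.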
tested on: M14 melanoma; test: NCI anticancer screen, dose series, 48 h

Q: With `COc1cccc(/C=N/[N-]C(=O)c2ccncc2)c1[O-].COc1cccc(/C=N/[N-]C(=O)c2ccncc2)c1[O-].[O]=[U](=[O])([OH2+])[OH2+]` as the compound, how does the GI50 read?
A: Its GI50 is 5.47 µM.

Q: And the TGI?
A: Its TGI is greater than 61.4 µM.

Q: `ClC(Cl)=C1C(=C(Cl)Cl)C(Cl)(Cl)C1(Cl)Cl` was tested. Which TGI did it give?
A: The TGI was 4.17 µM.

Q: With `CC(C)(C)c1ccc2c(c1)S(=O)(=O)Nc1ccc(Cl)cc1NS(=O)(=O)c1cc(C(C)(C)C)ccc1OCCOCCOCCO2` as the compound, how does the TGI read?
A: Its TGI is greater than 100 µM.

Q: With `N#CC(=Nc1ccccc1N(C(=O)c1ccccc1)C(=O)c1ccccc1)c1ccccc1` as the compound, how does the TGI read?
A: The TGI was greater than 100 µM.

Q: How did the TGI turn out when `COc1c(C)n(CCO)ccc1=O` was run?
A: The TGI was greater than 100 µM.

Q: For `COC(=O)C(=O)C(C(C)=O)C(=O)NCc1ccc(OC)c(OC)c1` (stereo unspecified), which TGI is on record?
A: The TGI was greater than 100 µM.

Q: For `Nc1c(-c2ccccc2-c2c(N)[n+]([O-])c3ccccc3[n+]2[O-])[n+]([O-])c2ccccc2[n+]1[O-]`, which TGI is on record?
A: Its TGI is 30.1 µM.

Q: `CCOC(=O)NC(=O)c1cn(C(CC)COC(=O)NCCCCCCNC(=O)OCC(CC)n2cc(C(=O)NC(=O)OCC)c(=O)[nH]c2=O)c(=O)[nH]c1=O` (stereo unspecified) was tested. Which TGI did it give?
A: The TGI was greater than 100 µM.

Q: Which TGI does the source give for `O=C(CC(=O)C1CCOC1=O)C(=O)Nc1cccc(Cl)c1` (stereo unspecified) here?
A: The TGI was greater than 100 µM.

Q: With `CCN1c2ccccc2-c2c3c1cc(C)cc3c1ccccc1[n+]2CC` as the compound, how does the TGI read?
A: Its TGI is 3.74 µM.

Q: For `Cc1cccc(C2=C/C(=C(\SS/C(C(=O)c3ccc(OCC(=O)O)c(Cl)c3Cl)=C3\C=C(c4cccc(C)c4)SS3)C(=O)c3ccc(OCC(=O)O)c(Cl)c3Cl)SS2)c1`, which TGI is on record?
A: The TGI was 51.3 µM.

Q: How did the TGI turn out when `CC(=O)N1CCN(c2ccc(OCC3COC(Cn4ccnc4)(c4ccc(Cl)cc4Cl)O3)cc2)CC1` (stereo unspecified) was run?
A: The TGI was 52.1 µM.

Q: Which TGI does the source give for `O=C(Cc1nc2c3c(ccc2[nH]c1=O)C(=O)c1ccccc1C3=O)C(=O)Nc1ccccc1[N+](=O)[O-]` here?
A: The TGI was 34 µM.

Q: For `CC1=C(C#N)C(=O)CC(c2ccc(Cl)cc2)N(C)N1` (stereo unspecified), which TGI is on record?
A: The TGI was greater than 100 µM.

Q: Which TGI does the source give for `Nc1nc(-c2ccc(Cl)c([N+](=O)[O-])c2)cs1` here?
A: The TGI was greater than 100 µM.

Q: `COc1cc(/C=C2\[C@H]3c4c(c(OC)c(C)c(OC)c4OC)CC(C(=O)N2Cc2ccccc2)N3C)c(OC)c(C)c1OC` was tested. Which TGI did it give?
A: The TGI was 36 µM.

Q: `CN(C)C(=S)SSC(=S)N(C)C` was tested. Which GI50 did it give?
A: Its GI50 is 14.4 µM.

Q: And the TGI?
A: The TGI was 30 µM and > 61.7 µM and > 51.3 µM.

Q: `O=C(N/C(=C\c1ccc([N+](=O)[O-])cc1)c1nc2ccccc2[nH]1)c1ccccc1` was tested. Which TGI did it give?
A: Its TGI is greater than 100 µM.

Q: How did the TGI turn out when `COC(=O)/C([Se]c1c(C)cc(C)cc1C)=C(/[Se]c1c(C)cc(C)cc1C)C(=O)OC` was run?
A: The TGI was greater than 100 µM.

Q: `NC(=O)C(=O)CC(=O)c1ccccc1NC1=CC(=O)C(=O)c2ccccc21` was tested. Which TGI did it give?
A: The TGI was greater than 100 µM.

Q: Which TGI does the source give for `Cc1cc2c(c(C(N)=O)c1C)-c1ccccc1C2=O` here?
A: Its TGI is greater than 100 µM.

Q: `CCCC(=O)C1=C(O)C(Cc2c(O)c(C)c(O)c(C(=O)CCC)c2O)=C(O)C(C)(C)C1=O` was tested. Which TGI did it give?
A: The TGI was greater than 50 µM.

Q: Which TGI does the source give for `COC(=O)/C(=N/O)C(C(=O)C=C(C)C)C(=O)C(=O)Nc1nc2ccc([N+](=O)[O-])cc2s1` (stereo unspecified) here?
A: The TGI was greater than 100 µM.

Q: Which TGI does the source give for `Cc1ccccc1C1=[N+]([O-])c2ccc(Cl)cc2C1=O` here?
A: Its TGI is 29.9 µM.

Q: Which TGI does the source give for `Cc1[nH]c2ccccc2c1C1Cc2ccccc2N1C(=O)C#Cc1ccc([N+](=O)[O-])cc1` (stereo unspecified) here?
A: The TGI was greater than 100 µM.

Q: How did the TGI turn out when `CCC/C=C/C=C/C1CC(O)C(O)C(=O)C1CO` (stereo unspecified) was run?
A: The TGI was greater than 100 µM.

Q: `CCOC(=O)NC(=O)c1cn(C2CCCCC2)c(=O)[nH]c1=O` was tested. Which TGI did it give?
A: Its TGI is greater than 100 µM.

Q: Which TGI does the source give for `Cn1c(=O)nc2n(-c3cc(C(F)(F)F)cc(C(F)(F)F)c3)c3ccccc3nc-2c1=O` here?
A: The TGI was greater than 100 µM.

tested on: MDA-MB-435; test: NCI anticancer screen, dose series, 48 h

Q: Which GI50 does the source give for `O=C1CCCN1c1ccccc1I(=O)=O` here?
A: Its GI50 is greater than 100 µM.

Q: And the TGI?
A: The TGI was greater than 100 µM.

Q: With `O=C(O)c1cccc(COc2ccc([N+](=O)[O-])cc2Cl)c1` as the compound, how does the GI50 read?
A: Its GI50 is greater than 100 µM.

Q: What about the TGI of the same compound?
A: The TGI was greater than 100 µM.

Q: For `CCC(C)(O)c1cnc(CC(C)C)c(=O)n1O` (stereo unspecified), which TGI is on record?
A: Its TGI is greater than 100 µM.

Q: For `COc1cc2c(/C=N\N=C(N)N)c[nH]c2cc1C`, which GI50 is on record?
A: The GI50 was 17 µM.

Q: What about the TGI of the same compound?
A: Its TGI is 33.2 µM.

Q: Which GI50 does the source give for `Cn1cc(-c2csc(-c3cn(CCCCN4CCCCC4)c4ccccc34)n2)c2cccnc21` here?
A: The GI50 was 1.13 µM.

Q: And the TGI?
A: The TGI was 2.36 µM.

Q: For `ClC(Cl)=C1C(=C(Cl)Cl)C(Cl)(Cl)C1(Cl)Cl`, which TGI is on record?
A: The TGI was 14 µM.

Q: Which GI50 does the source give for `O=C1c2ccccc2-c2c1c1ccccc1c(=O)n2CCN1CCNCC1` here?
A: Its GI50 is 1.97 µM.

Q: What about the TGI of the same compound?
A: Its TGI is 4.2 µM.

Q: Which GI50 does the source give for `Cc1ccc(OCCOCCOCCOCCOc2ccc(C)n(O)c2=S)c(=S)n1O` here?
A: Its GI50 is 0.366 µM.

Q: What about the TGI of the same compound?
A: The TGI was greater than 100 µM.

Q: `CN(C)C(=S)SSC(=S)N(C)C` was tested. Which GI50 did it give?
A: The GI50 was 15.6 µM and 8.04 µM and 21.1 µM.

Q: And the TGI?
A: Its TGI is 38.6 µM and 33.5 µM and > 56.7 µM.

Q: `COc1ccc(C(CC(=O)c2ccc3c(c2)OCO3)c2c(O)c3ccccc3oc2=O)cc1OC` (stereo unspecified) was tested. Which TGI did it give?
A: The TGI was greater than 100 µM.

Q: How did the TGI turn out when `CCCC(=O)C1=C(O)C(Cc2c(O)c(C)c(O)c(C(=O)CCC)c2O)=C(O)C(C)(C)C1=O` was run?
A: The TGI was greater than 50 µM.

Q: For `CCC/C=C/C=C/C1CC(O)C(O)C(=O)C1CO` (stereo unspecified), which TGI is on record?
A: The TGI was greater than 100 µM.

tested on: NCI/ADR-RES ovarian; test: NCI anticancer screen, dose series, 48 h

Q: How did the GI50 turn out when `O=C1CCCN1c1ccccc1I(=O)=O` was run?
A: Its GI50 is greater than 100 µM.

Q: And the TGI?
A: The TGI was greater than 100 µM.

Source: PubChem BioAssay (NCI)
